Our source for the IC50, inhibition and activity values is US11230542B2, “Inhibitors of integrated stress response pathway” (Praxis Biotech LLC, priority 2017, dated 2022).

The subject of test [1] is ATF4. Kind of test: ATF4 expression inhibition assay (thapsigargin-stressed HEK293T cells, western blot). Type of test: cell-based. As to conditions: Homo sapiens, HEK-293T; for IC50: 3 h with 100 nM Tg, test compound 1 nM to 1 μM; for inhibition at 0.1 µM: 3 h with 100 nM thapsigargin (Tg) and 100 nM test compound; for inhibition at 0.1 µM / inhibition at 1 µM: Tg alone 0%, untreated 100%; for inhibition at 1 µM: 3 h with 100 nM thapsigargin (Tg) and 1 μM test compound. The protocol: HEK293T cells were maintained at 37° C. and 5% CO2 in Dulbecco's Modified Eagle's Media (DMEM) supplemented with 10% fetal bovine serum (FBS), 2 mM L-glutamine, 100 U/ml penicillin, and 100 μg/ml streptomycin. […] Cells without treatment or cells treated with Tg alone were used as controls.
After 3 hours of treatment with Tg and the test compound, cells were lysed with SDS-PAGE lysis buffer. Lysates were transferred to 1.5 ml tubes and sonicated for 3 min, and total protein amounts were quantified using BCA Protein Assay Kit (Pierce). Equal amount of proteins were loaded on SDS-PAGE gels. Proteins were transferred onto 0.2 μm PVDF membranes (BioRad) and probed with primary antibodies diluted in Tris-buffered saline supplemented with 0.1% Tween 20 and 3% bovine serum albumin.
ATF4 (11815) antibody was used as primary antibody (Cell Signaling Technologies). A horseradish peroxidase (HRP)-conjugated secondary antibody (Rockland) was employed to detect immune-reactive bands using enhanced chemiluminescence (ECL Western Blotting Substrate, Pierce). Quantification of protein bands was done by densitometry using ImageJ.
Percentages of ATF4 inhibition after induction with Tg in the presence of 100 nM or 1 μM of certain test compounds are shown in Table 2 and FIG. 1. Percentage of ATF4 inhibition was calculated as the percent reduction normalized to Tg treatment (0% inhibition) and untreated cells (100% inhibition). Also shown in Table 2 is the calculated IC50 for the test compounds. […] Accordingly, inhibition of ATF4 expression as a result of the test compound indicates suppression of the ISR pathway.
On the technique in general: A western blot detects proteins with antibodies after separation by electrophoresis.

The subject of test [2] is CHO cells. The experiment in a line: Protein translation assay (puromycin incorporation in CHO cells, unstressed or Tg-stressed). It counts as cell-based, Chinese hamster. To be noted: Cricetulus griseus, media alone 100%; for activity at 0.1 µM: read-out: % Recovery of protein expression (100 nM test compound). The protocol: CHO cells were maintained at 37° C. and 5% CO2 in DMEM supplemented with 10% fetal bovine serum (FBS), 2 mM L-glutamine, 100 U/ml penicillin, and 100 μg/ml streptomycin. After reaching 80% of confluence, cells were detached and seeded on 6 well plates in complete media, allowed to recover overnight and treated for 2 hours with 1 μM of the test compound (to assess protein synthesis levels in unstressed condition), or for 1 hour with 100 nM and 1 μM of the test compound and then co-treated with 300 nM Tg and 100 nM and 1 μM of the test compound (to assess the recovery of protein synthesis in a stressed condition). Cells treated with Tg alone were used as controls.
After the 2 hours treatments, media were replaced by adding 10 μg/ml puromycin (Sigma Aldrich) in complete media for 30 min. Media were removed and cells were lysed with SDS-PAGE lysis buffer. Lysates were transferred to 1.5 ml tubes and sonicated for 3 minutes and total protein amount were quantified using BCA Protein Assay Kit (Pierce). Equal amount of protein (30 μg) was loaded on SDS-PAGE gels. Proteins were transferred onto 0.2 μm PVDF membranes (BioRad) and probed with primary antibodies diluted in Tris-buffered saline supplemented with 0.1% Tween 20 and 3% bovine serum albumin.
Puromycin (12D10) antibody was used as primary antibody (Merck Millipore). A HRP-conjugated secondary antibody (Rockland) was employed to detect immune-reactive bands using enhanced chemiluminescence (ECL Western Blotting Substrate, Pierce). Quantification of protein bands was done by densitometry using ImageJ.
Percent increase of protein synthesis in unstressed cells (without Tg treatment) in the presence of media alone or certain test compounds is shown in Table 3 and FIG. 2. The percentage levels were normalized to the media alone condition, which correspond to 100% protein synthesis.
Percent recovery of protein synthesis in stressed cells (with Tg treatment) due to the test compounds at 100 nM or 1 μM is shown in FIGS. 3A and 3B, respectively, and in Table 3. The levels were normalized to the media alone and to Tg alone conditions, which correspond to 100% and 0% respectively.

Where [3] appears, read: CHO cells stressed with 300 nM Tg, Tg alone 0%.
Where [4] appears, read: CHO cells stressed with 300 nM Tg, Tg alone 0%, read-out: % Recovery of protein expression (1 μM test compound).
Where [5] appears, read: unstressed CHO cells, 2 h, read-out: % Protein expression relative to untreated (1 μM test compound).

Read-outs that look alike come from different tables or passages of the source.

A word on the IC50: it is the concentration that gives 50% inhibition. The inhibition is how much of the control response was suppressed. A low value points to a response near the control. Turning to `O=C(COc1ccc(Cl)cc1)NC1CCN(CC(O)COc2ccc(Cl)cc2)CC1` (single isomer, unassigned; (-)) [Compound 15, (−)-2-(4-chlorophenoxy)-N-(1-(3-(4-chlorophenoxy)-2-hydroxypropyl)piperidin-4-yl)acetamide], in test [1], the IC50 was determined as 52.1 nM, the inhibition at 0.1 µM amounted to 77% and the inhibition at 1 µM is 99%. For the same compound, in test [2] (setting [3]), the activity at 0.1 µM was found to be 35.6%. Besides, in test [2] (setting [4]), the activity at 1 µM turned out to be 159%. For the same compound, in test [2] (setting [5]), the activity at 1 µM turned out to be 68.3%.

As to `O=C(COc1ccc(Cl)c(F)c1)NC1CCN(CC(O)COc2ccc(Cl)c(F)c2)CC1` (single isomer, unassigned; (-)) [Compound 26, (−)-2-(4-chloro-3-fluorophenoxy)-N-(1-(3-(4-chloro-3-fluorophenoxy)-2-hydroxypropyl)piperidin-4-yl)acetamide], in test [1], half-maximal inhibition (IC50) was put at 27 nM, 0.1 µM produced 91% inhibition and at 1 µM the inhibition was 97%. The activity at 0.1 µM in test [2] (setting [3]) worked out at 34.2%. In test [2] (setting [4]), the activity at 1 µM is 176%. Also, in test [2] (setting [5]), the activity at 1 µM was 112%.

As for `O=C(N[C@H]1CC[C@H](NCC(O)COc2ccc(Cl)c(F)c2)CC1)c1cc2cc(Cl)ccc2o1` (single isomer, unassigned; (-)) [Compound 155, (−)-trans-5-chloro-N-(4-((3-(4-chloro-3-fluorophenoxy)-2-hydroxypropyl)amino)cyclohexyl)benzofuran-2-carboxamide], in test [1], the inhibition at 0.1 µM was found to be 60% and the inhibition at 1 µM came to 75%. Moreover, in test [2] (setting [3]), the activity at 0.1 µM is 68.5%. Also, the activity at 1 µM in test [2] (setting [4]) came out at 190%. In test [2] (setting [5]), the activity at 1 µM was determined as 263%.

For the compound `O=C(COc1ccc(Cl)cc1)N[C@H]1CC[C@H](NC(=O)C2CNc3cc(Cl)ccc3O2)CC1` (single isomer, unassigned; (-)) [Compound 157, (−)-trans-6-chloro-N-(4-(2-(4-chlorophenoxy)acetamido)cyclohexyl)-3,4-dihydro-2H-benzo[b][1,4]oxazine-2-carboxamide], in test [1], the IC50 was found to be 23.8 nM, testing at 0.1 µM gave an inhibition of 96% and the inhibition at 1 µM came to 100%. The activity at 0.1 µM in test [2] (setting [3]) is 39.7%. The activity at 1 µM in test [2] (setting [4]) amounted to 97.3%. In addition, the activity at 1 µM in test [2] (setting [5]) was found to be 118%.

Regarding `O=C(COc1ccc(Cl)cc1)N[C@H]1CC[C@H](NCC(O)COc2ccc(Cl)cc2)CC1` (stereo partly drawn) [Compound 1, trans-2-(4-chlorophenoxy)-N-(4-((3-(4-chlorophenoxy)-2-hydroxypropyl)amino)cyclohexyl)acetamide], in test [1], the IC50 stood at 353 nM, the inhibition at 0.1 µM is 0% and 1 µM produced 71% inhibition. Moreover, the activity at 0.1 µM in test [2] (setting [3]) was 63.8%. In test [2] (setting [4]), the activity at 1 µM was determined as 160%. Moreover, the activity at 1 µM in test [2] (setting [5]) was found to be 152%.

For `O=C(COc1ccc(Cl)c(F)c1)N[C@H]1CC[C@H](NCC(O)COc2ccc(Cl)c(F)c2)CC1` (stereo partly drawn) [Compound 2, trans-2-(4-chloro-3-fluorophenoxy)-N-(4-((3-(4-chloro-3-fluorophenoxy)-2-hydroxypropyl)amino)cyclohexyl)acetamide], in test [1], the IC50 came out at 163 nM, testing at 0.1 µM gave an inhibition of 40% and the inhibition at 1 µM was found to be 56%. For the same compound, the activity at 0.1 µM in test [2] (setting [3]) came out at 42.5%. The activity at 1 µM in test [2] (setting [4]) was determined as 135%. Besides, in test [2] (setting [5]), the activity at 1 µM amounted to 136%.

For the compound `O=C(COc1ccc(Cl)cc1)NC1CCN(CC(O)COc2ccc(Cl)cc2)CC1` (stereo not drawn) [Compound 5, 2-(4-chlorophenoxy)-N-(1-(3-(4-chlorophenoxy)-2-hydroxypropyl)piperidin-4-yl)acetamide], in test [1], the IC50 turned out to be 170 nM, 0.1 µM produced 42% inhibition and the inhibition at 1 µM stood at 94%. For the same compound, in test [2] (setting [3]), the activity at 0.1 µM came out at 64.9%. The activity at 1 µM in test [2] (setting [4]) turned out to be 189%. Further, the activity at 1 µM in test [2] (setting [5]) was 130%.

Take `O=C(COc1ccc(Cl)c(F)c1)N[C@H]1CC[C@H](NCC(O)COc2ccc(Cl)cc2)CC1` (stereo partly drawn) [Compound 10, trans-2-(4-chloro-3-fluorophenoxy)-N-(4-((3-(4-chlorophenoxy)-2-hydroxypropyl)amino)cyclohexyl)acetamide]: in test [1], at 0.1 µM the inhibition was 0% and the inhibition at 1 µM was found to be 11%. Besides, the activity at 0.1 µM in test [2] (setting [3]) was found to be 30.6%. For the same compound, the activity at 1 µM in test [2] (setting [4]) amounted to 127%.

As to `O=C(COc1ccc(Cl)c(F)c1)NC1CCN(CC(O)COc2ccc(Cl)c(F)c2)CC1` (stereo not drawn) [Compound 13, 2-(4-chloro-3-fluorophenoxy)-N-(1-(3-(4-chloro-3-fluorophenoxy)-2-hydroxypropyl)piperidin-4-yl)acetamide], in test [1], the IC50 was determined as 57.2 nM, the inhibition at 0.1 µM was 57% and 1 µM produced 93% inhibition. For the same compound, the activity at 0.1 µM in test [2] (setting [3]) was determined as 49.6%. In addition, the activity at 1 µM in test [2] (setting [4]) worked out at 159%. Besides, the activity at 1 µM in test [2] (setting [5]) is 94%.

Consider `O=C(COc1ccc(Cl)c(F)c1)N[C@H]1CC[C@H](NC(=O)c2cc3cc(Cl)ccc3o2)CC1` [Compound 17, trans-5-chloro-N-(4-(2-(4-chloro-3-fluorophenoxy)acetamido)cyclohexyl)benzofuran-2-carboxamide], for which, in test [1], the IC50 is 9.52 nM, the inhibition at 0.1 µM amounted to 95% and the inhibition at 1 µM stood at 98%. Besides, the activity at 0.1 µM in test [2] (setting [3]) was 87%. Also, the activity at 1 µM in test [2] (setting [4]) was 172%. Also, the activity at 1 µM in test [2] (setting [5]) amounted to 93.2%.

In test [1], `O=C(COc1ccc(Cl)c(F)c1)N[C@H]1CC[C@H](NC(=O)C2Cc3cc(Cl)ccc3O2)CC1` (stereo partly drawn) [Compound 19, trans-5-chloro-N-(4-(2-(4-chloro-3-fluorophenoxy)acetamido)cyclohexyl)-2,3-dihydrobenzofuran-2-carboxamide] displayed an inhibition at 0.1 µM of 94% and an inhibition at 1 µM of 100%. Further, the activity at 0.1 µM in test [2] (setting [3]) stood at 14.1%. In addition, in test [2] (setting [4]), the activity at 1 µM stood at 116%.

As for `O=C(NC1CCN(CC(O)COc2ccc(Cl)c(F)c2)CC1)C1Cc2cc(Cl)ccc2O1` (stereo not drawn) [Compound 20, 5-chloro-N-(1-(3-(4-chloro-3-fluorophenoxy)-2-hydroxypropyl)piperidin-4-yl)-2,3-dihydrobenzofuran-2-carboxamide], in test [1], the inhibition at 0.1 µM came to 14% and at 1 µM the inhibition was 64%. Moreover, the activity at 0.1 µM in test [2] (setting [3]) was 38.6%. Besides, the activity at 1 µM in test [2] (setting [4]) came to 93.9%.

For `O=C(NC1CCN(CC(O)COc2ccc(Cl)c(F)c2)CC1)c1ccc2cc(Cl)ccc2c1` (stereo not drawn) [Compound 21, 6-chloro-N-(1-(3-(4-chloro-3-fluorophenoxy)-2-hydroxypropyl)piperidin-4-yl)-2-naphthamide], in test [1], testing at 0.1 µM gave an inhibition of 54% and testing at 1 µM gave an inhibition of 78%. The activity at 0.1 µM in test [2] (setting [3]) came to 70.5%. Further, in test [2] (setting [4]), the activity at 1 µM stood at 182%.

With `O=C(NC1CCN(CC(O)COc2ccc(Cl)c(F)c2)CC1)c1ccc2cc(Cl)ccc2n1` (stereo not drawn) [Compound 22, 6-chloro-N-(1-(3-(4-chloro-3-fluorophenoxy)-2-hydroxypropyl)piperidin-4-yl)quinoline-2-carboxamide], in test [1], the IC50 is 103 nM, the inhibition at 0.1 µM turned out to be 21% and the inhibition at 1 µM worked out at 81%. The activity at 0.1 µM in test [2] (setting [3]) was found to be 67.3%. Moreover, in test [2] (setting [4]), the activity at 1 µM was 264%. In test [2] (setting [5]), the activity at 1 µM was found to be 170%.
